Data on 14 molecules can be found in patent US10233202B2, “Tenofovir monobenzyl ester phosphamide prodrug, preparation method and use thereof” (JIANGSU TASLY DIYI PHARMACEUTICAL CO., LTD., priority 2015, dated 2019).

What is called CC50 is the concentration that lowers cell viability or growth by half. What is called EC50 is the concentration needed to bring the measured effect to its halfway point. As a reminder, the half-life is the time needed for the level to fall by half in the phase considered.

Molecules are shown by their SMILES. Like-named read-outs stand apart in the source and are kept apart here.

A short description of one data set: in vitro. It counts as cell-based. The settings on record: human, HepG2.2.15 cells. Here is the method:
The concentration of HBV DNA in the HepG2.2.15 cell supernatant was detected through the real-time fluorescence quantitative PCR (qPCR) method to determine the anti-HBV activity of the compound in the HepG2.2.15 cells, and the effect of the testing compounds to the HepG2.2.15 cell activity was detected through Cell-titer Blue.
(§1) 8.1. Dilution of the compounds: the initial concentration of each compound in the in vitro anti-HBV activity test was 1 μM, with 3-fold serial dilution to 8 concentrations; the initial concentration of each compound in the cytotoxicity test was 100 μM, with 3-fold serial dilution to 8 concentrations; DMSO was used for the dilution of the compound mother liquor. The initial concentrations of the reference compound TDF for the anti-HBV activity test in vitro and the cytotoxicity test were all set at 0.2 μM, with 3-fold serial dilution to 8 concentrations.
8.3. Treatment of the cells in the cell viability test: the HepG2.2.15 cells were plated in the 96-well plate (4×10^4 cells/well), and cultured overnight at 37° C. in 5% CO2. On 2nd day, fresh culture solutions containing compounds of different concentrations were added to the culture wells. See Table 3 for the compound distribution. On 5th day, the used culture solutions in the culture wells were sucked and discarded, and fresh culture solutions containing compounds of different concentrations were added. On 8th day, Cell-titer Blue agent was added to each well, and the microplate reader was used to detect the fluorescence value of each well.
The cell viability percentage was calculated using the following formula: % cell viability=(fluorescence of sample−fluorescence of medium control)/(fluorescence of DMSO control−fluorescence of medium control)[…] 100%
(§2) 9.2 Test method: the test was carried out according to the procedure in example 1.

A short description of data set [1]: Stability in the simulated intestinal fluid. It counts as in vitro ADME. As to conditions: 10 μM. Here is the method: (§3) The following stability test were carried out according to the prior art, and the data of the stability test shown in the table were the residue percentages after the test compounds were incubated for different period of time under the test condition.

The next data set is described as follows: in vivo. More on the design: species or system ICR mice. As to conditions: mouse, 50 mg/kg. The procedure:
12 ICR mice (male, body weight 30±5 g, purchased from the Vital River animal center) were randomly divided into 4 groups, 3 for each group, fasted for 12 h before drug administration, with freely drinking during the fasting. […] The dose of the Tenofovir prodrug was 50 mg/kg, and the administration quantity was 10 mL/kg. The sample collection protocols: after administration by gastric gavage, each 0.5 mL of blood was taken from the orbit at 15 min, 30 min, 1 h, and 3 h; the mice were sacrificed, and the liver tissues were taken, washed cleanly, and weighed; normal saline was added to the liver with a proportion of 1:1, homogenized, and stored in the refrigerator at −40° C. for test. Treatment method for the plasma samples: 100 μL of the mouse plasma was taken and placed in a 1.5 mL plastic EP tube, 100 μL solution of internal standard (200 ng/ml theophylline) solution was added, 600 μL acetonitrile was added, vortex shaking for 2 min, centrifuged for 3 min (12500 rpm), the supernatant was taken, purged with nitrogen to dryness, and dissolved again with 100 μL of mobile phase (water:methanol=95:5), and the injection volume was 10 μL. Treatment method for the tissue samples: 200 μL of the mouse tissue samples were taken and placed in a 1.5 mL plastic EP tube, 100 μL solution of internal standard (200 ng/ml theophylline) solution was added, 600 μL acetonitrile was added, vortex shaking for 2 min, centrifuged for 3 min (12500 rpm), the supernatant was taken, purged with nitrogen to dryness, and dissolved again with 100 μL of mobile phase (water:methanol=95:5), and the injection volume was 20μL.

The nature of data set [2]: Stability in the human blood. It counts as in vitro ADME. The settings on record: 2 μM. The procedure:
as §3

The next data set has as its system HBV. Briefly: Cell based anti-HBV activity test, HBV DNA in HepG2.2.15 cell supernatant by qPCR. The settings on record: read-out: EC50. Here is the method: as §1
8.2. Anti-HBV activity test in vitro: the HepG2.2.15 cells were plated in the 96-well plate (4×10^4 cells/well), and cultured overnight at 37° C. in 5% CO2. On second day, fresh culture solutions containing compounds of different concentrations were added to the culture wells. See Table 2 for the compound distribution. On 5th day, the used culture solutions in the culture wells were sucked and discarded, and fresh culture solutions containing compounds of different concentrations were added. On 8th day, the supernatant in the culture wells was collected for the extraction of HBV DNA in the supernatant. qPCR test was used to detect the concentration of HBV DNA content in the HepG2.2.15 supernatant.
8.4. Data analysis and calculation of the inhibition percentage and relative cell viability: The inhibition percentage was calculated using the following formula: % Inh.=[(HBV quantity of DMSO control−HBV quantity of sample)/HBV quantity of DMSO control]×100%
9.1 Drugs: the dilution method and concentrations of compound 3, the reference compound (CN201380030061.6, and the compound shown in claim 36 (abbreviation: compound 7), and the isomer thereof) were the same as those in example 1.
as §2
In general terms: In qPCR the cycle at which signal appears reflects the starting amount.

Data set [3] in a line: Stability in the simulated gastric fluid. Format: in vitro ADME. The settings on record: 20 μM. The procedure: as §3
Data set [4] in a line: Stability in the human liver S9. It counts as in vitro ADME. The procedure:
as §3

The mark [5] stands for this setting: Cell-titer Blue on 8th day, Table 3.
[6] abbreviates: Hepatitis B virus, HepG2.2.15, HepG2.2.15 cells, HBV DNA in supernatant on 8th day, Table 3.
The mark [7] stands for this setting: HepG2.2.15 cells, HBV DNA in supernatant on 8th day, Table 3.

In the case of `COC(=O)CN[P@@](=O)(CO[C@H](C)Cn1cnc2c(N)ncnc21)OCc1ccccc1` [Compound 2a], the CC50 in the data set “in vitro” (setting [5]) was greater than 100 µM.
`O=C(O)CCCc1ccc(N(CCCl)CCCl)cc1` [Chlorambucil]: the “% 0 min (residue percentage)” value in data set [1] (0 min) was 100%. The “% 60 min (residue percentage)” value in data set [1] (60 min) is given as 29.36%. In data set [1] (120 min), the “% 120 min (residue percentage)” value is listed as 3.11%. Also, the “% 360 min (residue percentage)” value in data set [1] (360 min) is 0.00%. In addition, in data set [1] (1440 min), the “% 1440 min (residue percentage)” value is 0.00%.
As to `C[C@H](Cn1cnc2c(N)ncnc21)OCP(=O)(O)O` [TFV, Tenofovir], in “in vivo”, the Cliver tissue is on record as 67.251 nmol/mL, the Cplasma is 0.075 nmol/mL and the “Liver tissue selectivity (Cliver tissue/Cplasma)” value is on record as 896.
As to `CC1CC(OC(=O)C(O)c2ccccc2)CC(C)(C)N1C` (centres unmarked) [Eucatropine], the “% 0 min (residue percentage)” value in data set [2] (0 min) was found to be 100%. Further, the “% 10 min (residue percentage)” value in data set [2] (10 min) amounted to 54.4%. Further, the “% 30 min (residue percentage)” value in data set [2] (30 min) is on record as 37.0%. Moreover, in data set [2] (60 min), the “% 60 min (residue percentage)” value was 24.4%. The “% 120 min (residue percentage)” value in data set [2] (120 min) is reported as 10.2%.
On to `CC(C)OC(=O)CN[P@@](=O)(CO[C@H](C)Cn1cnc2c(N)ncnc21)OCc1ccccc1` (single isomer, unassigned) [Compound 1a], for which the EC50 in the data set with HBV (setting [6]) is greater than 1 µM. The CC50 in the data set “in vitro” (setting [5]) was greater than 100 µM.
On to `C[C@H](Cn1cnc2c(N)ncnc21)OC[P@](=O)(NCC(=O)OCc1ccccc1)OCc1ccccc1` (single isomer, unassigned) [Compound 5a], for which the EC50 with HBV (setting [7]) was 0.214 µM; in the data set on HBV (setting [6]), 0.2 to 1 µM. The molecule also gave a CC50 in the data set “in vitro” (setting [5]) greater than 100 µM.
Take `COc1ccc2[nH]c([S+]([O-])Cc3ncc(C)c(OC)c3C)nc2c1` (centres unmarked) [Omeprazole]: the “% 0 min (residue percentage)” value in data set [3] (0 min) was 100%. Moreover, in data set [3] (60 min), the “% 60 min (residue percentage)” value was 24.34%. Moreover, in data set [3] (120 min), the “% 120 min (residue percentage)” value was 9.41%. Further, the “% 360 min (residue percentage)” value in data set [3] (360 min) is given as 1.58%. Further, the “% 1440 min (residue percentage)” value in data set [3] (1440 min) is given as 0.31%.
In the case of `COC(=O)CN[P@](=O)(CO[C@H](C)Cn1cnc2c(N)ncnc21)OCc1ccccc1` [Compound 2b], the EC50 in the data set with HBV (setting [6]) was greater than 1 µM. In addition, the CC50 in “in vitro” (setting [5]) was greater than 100 µM.
In turn, `C[C@H](Cn1cnc2c(N)ncnc21)OC[P@@](=O)(NCC(=O)OCc1ccccc1)OCc1ccccc1` (single isomer, unassigned) [Compound 5b] gave a CC50 in “in vitro” (setting [5]) greater than 100 µM.
Regarding `CCOc1ccc2ccc(=O)oc2c1` [7-Ethoxycumarin], in data set [4] (human liver S9, 1 μM), the “CLlint(s9)” value worked out at 8.4 µL/min/mg, the half-life at 1 μM turned out to be 82.2 min and the “Remaining (T = 60 min)” value is listed as 60%. Further, in data set [4] (human liver S9, 1 μM, scaled per kg), the “CLlint(s9)” value came out at 1.78 mL/h/kg.
Regarding `CC(C)OC(=O)CN[P@](=O)(CO[C@H](C)Cn1cnc2c(N)ncnc21)OCc1ccccc1` (single isomer, unassigned) [Compound 1b], the EC50 was 0.29 µM with HBV (setting [7]) and 0.2 to 1 µM with HBV (setting [6]). The same molecule had a CC50 in “in vitro” (setting [5]) greater than 100 µM.
On to `Cc1ccccc1CO[P@](=O)(CO[C@H](C)Cn1cnc2c(N)ncnc21)N[C@@H](C)C(=O)OC(C)C` [Compound 7a], for which the EC50 in the data set on HBV (Hepatitis B virus, HepG2.2.15, HepG2.2.15 cells, comparative test, Table 4) is greater than 1 µM. The same molecule came in with a CC50 in “in vitro” (comparative test, Table 4) greater than 100 µM.
Turning to `O=c1ccc2ccc(O)cc2o1` [7-Hydroxycoumarin], the “Remaining (T = 60 min)” value in data set [4] (human liver S9, 1 μM) worked out at 4%. The half-life in data set [4] (human, s9) came to 6.6 min.
For the molecule `CC(C)OC(=O)[C@H](C)NP(=O)(CO[C@H](C)Cn1cnc2c(N)ncnc21)OCc1ccccc1` (some centres unmarked) [Compound 3], in “in vivo” (male, ICR), the selectivity ratio at 3 h was 3.61. Also, the concentration at 3 h in the data set “in vivo” (male, ICR, Cliver tissue) was determined as 375 nM; in the data set “in vivo” (male, ICR, Cplasma), 104 nM.
